{"source": "patent US20130165641A1", "about": "“6,11-BRIDGED BIARYL MACROLIDES” (Enanta Pharmaceuticals, Inc., priority 2007, published 2013)", "assay": "Rat PK of amino acid prodrug after IV/PO administration", "format": "in vivo", "conditions": "plasma, 10 mg/kg IV, prodrug itself, read-out: AUC0-∝"}
{"smiles": "CCC(=O)/N=C1\\[C@H](C)C[C@@]2(C)OC/C(=N/OCc3ccc(-c4nc(NC(=O)[C@@H](N)CC(C)C)cs4)cn3)CO[C@H]([C@H]1C)[C@](C)(O)[C@@H](CC)OC(=O)[C@@](C)(F)C(=O)[C@H](C)[C@H]2O[C@@H]1O[C@H](C)C[C@H](N(C)C)[C@H]1O", "note": "[Compounds 6]", "values": [{"measurement": "AUC", "value": 210, "unit": "ng·h/mL"}]}
